Measurements taken from PubChem BioAssay AID2060624 (Molecular Pharmacology Branch, DTP, NCI, 2025).

Tested on: 217524-143-R1-J4-PDC spheroids with HUVEC/MSC, viability
Assay: Anticancer human tumor 217524-143-R1-J4-PDC patient-derived pancreatic carcinoma cell line growth inhibition [CLK]
Conditions: for IC50: curve of first compound; for viability, T/C: stronger effect = lower value
Outline: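 Multi-cell-type spheroids combined patient-derived tumor cells with HUVEC endothelial cells and human mesenchymal stem cells. Paired agents were dosed in half-log steps down from about clinical Cmax, or from 10 microM where Cmax was unknown.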

[1] = second compound 0.0316 µM, first compound 0.0316 µM
[2] = second compound 0.0316 µM, first compound 0.1 µM
[3] = second compound 0.0316 µM, first compound 0.316 µM
[4] = second compound 0.0316 µM, first compound 1 µM
[5] = second compound 0.0316 µM, first compound 3.16 µM
[6] = second compound 0.0316 µM, first compound 10 µM
[7] = second compound 0.1 µM, first compound 0.0316 µM
[8] = second compound 0.1 µM, first compound 0.1 µM
[9] = second compound 0.1 µM, first compound 0.316 µM
[10] = second compound 0.1 µM, first compound 1 µM
[11] = second compound 0.1 µM, first compound 3.16 µM
[12] = second compound 0.1 µM, first compound 10 µM
[13] = second compound 0.316 µM, first compound 0.0316 µM
[14] = second compound 0.316 µM, first compound 0.1 µM
[15] = second compound 0.316 µM, first compound 0.316 µM
[16] = second compound 0.316 µM, first compound 1 µM
[17] = second compound 0.316 µM, first compound 3.16 µM
[18] = second compound 0.316 µM, first compound 10 µM
[19] = second compound 1 µM, first compound 0.0316 µM
[20] = second compound 1 µM, first compound 0.1 µM
[21] = second compound 1 µM, first compound 0.316 µM
[22] = second compound 1 µM, first compound 1 µM
[23] = second compound 1 µM, first compound 3.16 µM
[24] = second compound 1 µM, first compound 10 µM
[25] = second compound 3.16 µM, first compound 0.0316 µM
[26] = second compound 3.16 µM, first compound 0.1 µM
[27] = second compound 3.16 µM, first compound 0.316 µM
[28] = second compound 3.16 µM, first compound 1 µM
[29] = second compound 3.16 µM, first compound 3.16 µM
[30] = second compound 3.16 µM, first compound 10 µM
[31] = second compound 10 µM, first compound 0.0316 µM
[32] = second compound 10 µM, first compound 0.1 µM
[33] = second compound 10 µM, first compound 0.316 µM
[34] = second compound 10 µM, first compound 1 µM
[35] = second compound 10 µM, first compound 3.16 µM
[36] = second compound 10 µM, first compound 10 µM
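Further: spheroids exposed to agents for seven days before reading.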
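Wherever viability, T/C is given: 100% = DMSO vehicle control viability.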

CC1(C)CCC(CN2CCN(c3ccc(C(=O)NS(=O)(=O)c4ccc(NCC5CCOCC5)c([N+](=O)[O-])c4)c(Oc4cnc5[nH]ccc5c4)c3)CC2)=C(c2ccc(Cl)cc2)C1 + CN1CCN(c2cc(C(=O)Nc3cc4cc(-c5cnn(C)c5)ccc4cn3)ccn2)CC1
IC50 (second compound 0.0316 µM): 5.02 µM
IC50 (second compound 0.1 µM): 3.82 µM
IC50 (second compound 0.316 µM): < 0.0316 µM
IC50 (second compound 1 µM): < 0.0316 µM
IC50 (second compound 3.16 µM): < 0.0316 µM
IC50 (second compound 10 µM): < 0.0316 µM
viability, T/C [1]: 83.2%
viability, T/C [2]: 68.9%
viability, T/C [3]: 89.4%
viability, T/C [4]: 88.4%
viability, T/C [5]: 77.1%
viability, T/C [6]: 9.4%
viability, T/C [7]: 55.5%
viability, T/C [8]: 55%
viability, T/C [9]: 55.1%
viability, T/C [10]: 65.7%
viability, T/C [11]: 60.2%
viability, T/C [12]: 7.83%
viability, T/C [13]: 19.1%
viability, T/C [14]: 20.4%
viability, T/C [15]: 21.5%
viability, T/C [16]: 22.8%
viability, T/C [17]: 20.9%
viability, T/C [18]: 6.29%
viability, T/C [19]: 2.02%
viability, T/C [20]: 1.96%
viability, T/C [21]: 1.65%
viability, T/C [22]: 1.7%
viability, T/C [23]: 1.3%
viability, T/C [24]: 1.35%
viability, T/C [25]: 0.59%
viability, T/C [26]: 0.61%
viability, T/C [27]: 0.76%
viability, T/C [28]: 0.45%
viability, T/C [29]: 0.49%
viability, T/C [30]: 0.25%
viability, T/C [31]: 0.16%
viability, T/C [32]: 0.16%
viability, T/C [33]: 0.19%
viability, T/C [34]: 0.26%
viability, T/C [35]: 0.24%
viability, T/C [36]: 0.17%

CC1COCCN1c1cc(C2(S(C)(=N)=O)CC2)nc(-c2ccnc3[nH]ccc23)n1 (stereo unspecified) + CN1CCN(c2cc(C(=O)Nc3cc4cc(-c5cnn(C)c5)ccc4cn3)ccn2)CC1
IC50 (second compound 0.0316 µM): 1.43 µM
IC50 (second compound 0.1 µM): 0.342 µM
IC50 (second compound 0.316 µM): < 0.0316 µM
IC50 (second compound 1 µM): < 0.0316 µM
IC50 (second compound 3.16 µM): < 0.0316 µM
IC50 (second compound 10 µM): < 0.0316 µM
viability, T/C [1]: 93.1%
viability, T/C [2]: 79.7%
viability, T/C [3]: 63.9%
viability, T/C [4]: 66.3%
viability, T/C [5]: 32.9%
viability, T/C [6]: 18.6%
viability, T/C [7]: 56.7%
viability, T/C [8]: 67.3%
viability, T/C [9]: 43.1%
viability, T/C [10]: 42.3%
viability, T/C [11]: 29.1%
viability, T/C [12]: 16.4%
viability, T/C [13]: 22.1%
viability, T/C [14]: 19.2%
viability, T/C [15]: 17.1%
viability, T/C [16]: 16.1%
viability, T/C [17]: 12.3%
viability, T/C [18]: 11.4%
viability, T/C [19]: 1.72%
viability, T/C [20]: 1.95%
viability, T/C [21]: 2.1%
viability, T/C [22]: 1.89%
viability, T/C [23]: 1.87%
viability, T/C [24]: 1.22%
viability, T/C [25]: 0.77%
viability, T/C [26]: 0.42%
viability, T/C [27]: 0.98%
viability, T/C [28]: 0.65%
viability, T/C [29]: 0.84%
viability, T/C [30]: 1.13%
viability, T/C [31]: 0.21%
viability, T/C [32]: 0.17%
viability, T/C [33]: 0.25%
viability, T/C [34]: 0.29%
viability, T/C [35]: 0.29%
viability, T/C [36]: 0.25%

NC(=O)C(=Cn1cnc(-c2cc(C(F)(F)F)cc(C(F)(F)F)c2)n1)c1cncnc1 + CN1CCN(c2cc(C(=O)Nc3cc4cc(-c5cnn(C)c5)ccc4cn3)ccn2)CC1
IC50 (second compound 0.0316 µM): 0.0218 µM
IC50 (second compound 0.1 µM): < 0.00949 µM
IC50 (second compound 0.316 µM): < 0.00949 µM
IC50 (second compound 1 µM): < 0.00949 µM
IC50 (second compound 3.16 µM): < 0.00949 µM
IC50 (second compound 10 µM): < 0.00949 µM
viability, T/C (second compound 0.0316 µM, first compound 0.00949 µM): 80.7%
viability, T/C (second compound 0.0316 µM, first compound 0.03 µM): 39.1%
viability, T/C (second compound 0.0316 µM, first compound 0.0949 µM): 22.3%
viability, T/C (second compound 0.0316 µM, first compound 0.3 µM): 21.2%
viability, T/C (second compound 0.0316 µM, first compound 0.949 µM): 23.1%
viability, T/C (second compound 0.0316 µM, first compound 3 µM): 17.8%
viability, T/C (second compound 0.1 µM, first compound 0.00949 µM): 35.9%
viability, T/C (second compound 0.1 µM, first compound 0.03 µM): 23.7%
viability, T/C (second compound 0.1 µM, first compound 0.0949 µM): 14%
viability, T/C (second compound 0.1 µM, first compound 0.3 µM): 15.4%
viability, T/C (second compound 0.1 µM, first compound 0.949 µM): 14.6%
viability, T/C (second compound 0.1 µM, first compound 3 µM): 10.6%
viability, T/C (second compound 0.316 µM, first compound 0.00949 µM): 10.8%
viability, T/C (second compound 0.316 µM, first compound 0.03 µM): 8.91%
viability, T/C (second compound 0.316 µM, first compound 0.0949 µM): 4.48%
viability, T/C (second compound 0.316 µM, first compound 0.3 µM): 4%
viability, T/C (second compound 0.316 µM, first compound 0.949 µM): 1.55%
viability, T/C (second compound 0.316 µM, first compound 3 µM): 0.81%
viability, T/C (second compound 1 µM, first compound 0.00949 µM): 0.79%
viability, T/C (second compound 1 µM, first compound 0.03 µM): 0.59%
viability, T/C (second compound 1 µM, first compound 0.0949 µM): 0.94%
viability, T/C (second compound 1 µM, first compound 0.3 µM): 0.88%
viability, T/C (second compound 1 µM, first compound 0.949 µM): 0.76%
viability, T/C (second compound 1 µM, first compound 3 µM): 1.07%
viability, T/C (second compound 3.16 µM, first compound 0.00949 µM): 0.72%
viability, T/C (second compound 3.16 µM, first compound 0.03 µM): 0.67%
viability, T/C (second compound 3.16 µM, first compound 0.0949 µM): 0.62%
viability, T/C (second compound 3.16 µM, first compound 0.3 µM): 0.55%
viability, T/C (second compound 3.16 µM, first compound 0.949 µM): 0.69%
viability, T/C (second compound 3.16 µM, first compound 3 µM): 0.68%
viability, T/C (second compound 10 µM, first compound 0.00949 µM): 0.2%
viability, T/C (second compound 10 µM, first compound 0.03 µM): 0.17%
viability, T/C (second compound 10 µM, first compound 0.0949 µM): 0.21%
viability, T/C (second compound 10 µM, first compound 0.3 µM): 0.22%
viability, T/C (second compound 10 µM, first compound 0.949 µM): 0.24%
viability, T/C (second compound 10 µM, first compound 3 µM): 0.2%
